Results from patent US10689339B2, “Pyrrolidine derivatives” (Hoffmann-La Roche Inc., priority 2016, dated 2020).

biological target: human Cat S (Homo sapiens (Human), UniProt P25774); test: Cathepsin enzyme inhibition assay (fluorogenic peptide substrate Z-Val-Val-Arg-AMC); assay type: biochemical; settings: enzyme 1 nM, substrate 20 μM, pH 6.5
Method: Cathepsin Enzyme Inhibition Assay
Enzyme activity is measured by observing the increase in fluorescence intensity caused by cleavage of a peptide substrate containing a fluorophore whose emission is quenched in the intact peptide.
Assay buffer: 100 mM potassium phosphate pH 6.5, EDTA-Na 5 mM, Triton X-100 0.001%, DTT 5 mM.
Enzymes (all at 1 nM): human and mouse Cathepsin S, Cat K, Cat B, Cat L.
Substrate (20 μM): Z-Val-Val-Arg-AMC, except for Cat K which uses Z-Leu-Arg-AMC (both from Bachem).
AMC=7-Amino-4-Methyl-Coumarin.
Excitation 360 nm, Emission 465 nm.
Enzyme is added to the substance dilutions in 96-well microtitre plates and the reaction is started with substrate. […] IC50 are calculated by standard methods.
Inhibition of human Cat S, mouse Cat S, human Cat K, human Cat B, human Cat L and mouse Cat L have been measured separately.

Chain of human Cat S (P25774 115-331): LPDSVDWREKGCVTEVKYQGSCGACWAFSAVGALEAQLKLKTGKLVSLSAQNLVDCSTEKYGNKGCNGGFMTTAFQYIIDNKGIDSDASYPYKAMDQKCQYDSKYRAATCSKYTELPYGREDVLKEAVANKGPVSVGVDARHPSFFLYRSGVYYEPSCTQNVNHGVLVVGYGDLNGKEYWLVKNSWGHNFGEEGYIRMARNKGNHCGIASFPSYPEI

`Cc1cc(C(F)(F)F)nn1-c1ccc(S(=O)(=O)[C@@H]2C[C@@H](C(=O)NC3(C#N)CC3)N(C(=O)C3(C(F)(F)F)CC3)C2)c(Cl)c1` [Example 18, (2S,4R)-4-(2-chloro-4-(5-methyl-3-(trifluoromethyl)-1H-pyrazol-1-yl)phenylsulfonyl)-N-(1-cyanocyclopropyl)-1-(1-(trifluoromethyl)cyclopropanecarbonyl)pyrrolidine-2-carboxamide] and `Cc1cc(C(F)(F)F)nn1-c1ccc(S(=O)(=O)[C@@H]2C[C@@H](C(=O)NC3(C#N)CC3)N(C(=O)C3(C(F)(F)F)CC3)C2)c(C(F)(F)F)c1` [Example 23, (2S,4R)-4-[4-(5-Methyl-3-trifluoromethyl-pyrazol-1-yl)-2-trifluoromethyl-benzenesulfonyl]-1-(1-trifluoromethyl-cyclopropanecarbonyl)-pyrrolidine-2-carboxylic acid (1-cyano-cyclopropyl)-amide] are within 1.5-fold of each other in IC50: 0.98 nM for the first, 1.12 nM for the second.

`Cc1cc(-n2ccc(C(F)(F)F)n2)ccc1S(=O)(=O)[C@@H]1C[C@@H](C(=O)NC2(C#N)CC2)N(C(=O)C2(C(F)(F)F)CC2)C1` [Example 19, (2S,4R)—N-(1-cyanocyclopropyl)-4-(2-methyl-4-(3-(trifluoromethyl)-1H-pyrazol-1-yl)phenylsulfonyl)-1-(1-(trifluoromethyl)cyclopropanecarbonyl)pyrrolidine-2-carboxamide] and `N#CC1(NC(=O)[C@@H]2C[C@@H](S(=O)(=O)c3ccc(-n4ccc(C(F)(F)F)n4)cc3)CN2C(=O)C2(C(F)(F)F)CC2)CC1` [Example 35, (2S,4R)—N-(1-cyanocyclopropyl)-4-(4-(3-(trifluoromethyl)-1H-pyrazol-1-yl)phenylsulfonyl)-1-(1-(trifluoromethyl)cyclopropanecarbonyl)pyrrolidine-2-carboxamide] are within 1.5-fold of each other in IC50: 1.43 nM for the first, 1.02 nM for the second.

First: N#CC1(NC(=O)[C@@H]2C[C@@H](S(=O)(=O)c3ccc(-c4ccccc4OC(F)(F)F)cc3)CN2C(=O)C2(C(F)(F)F)CC2)CC1 [Example 20, (2S,4R)—N-(1-cyanocyclopropyl)-4-(2′-(trifluoromethoxy)biphenyl-4-ylsulfonyl)-1-(1-(trifluoromethyl)cyclopropanecarbonyl)pyrrolidine-2-carboxamide]
Second: CCOc1ccccc1-c1ccc(S(=O)(=O)[C@@H]2C[C@@H](C(=O)NC3(C#N)CC3)N(C(=O)C3(C(F)(F)F)CC3)C2)cc1 [Example 38, (2S,4R)—N-(1-cyanocyclopropyl)-4-(2′-ethoxybiphenyl-4-ylsulfonyl)-1-(1-(trifluoromethyl)cyclopropanecarbonyl)pyrrolidine-2-carboxamide]
The IC50 of the first is 1.8-fold higher: 5.72 nM for the first, 3.21 nM for the second.

`N#CC1(NC(=O)[C@@H]2C[C@@H](S(=O)(=O)c3ccc(OC4CCC4)cc3Cl)CN2C(=O)C2(C(F)(F)F)CC2)CC1` [Example 21, (2S,4R)-4-(2-chloro-4-cyclobutoxyphenylsulfonyl)-N-(1-cyanocyclopropyl)-1-(1-(trifluoromethyl)cyclopropanecarbonyl)pyrrolidine-2-carboxamide] and `Cc1cc(-c2ccccc2C=O)ccc1S(=O)(=O)[C@@H]1C[C@@H](C(=O)NC2(C#N)CC2)N(C(=O)C2(C(F)(F)F)CC2)C1` [Example 29, (2S,4R)—N-(1-cyanocyclopropyl)-4-(2′-formyl-3-methylbiphenyl-4-ylsulfonyl)-1-(1-(trifluoromethyl)cyclopropanecarbonyl)pyrrolidine-2-carboxamide] are within 1.5-fold of each other in IC50: 1.07 nM for the first, 0.811 nM for the second.

`Cc1cc(-c2ccccc2OC(F)(F)F)ccc1S(=O)(=O)[C@@H]1C[C@@H](C(=O)NC2(C#N)CC2)N(C(=O)C2(C(F)(F)F)CC2)C1` [Example 22, (2S,4R)—N-(1-cyanocyclopropyl)-4-(3-methyl-2′-(trifluoromethoxy)biphenyl-4-ylsulfonyl)-1-(1-(trifluoromethyl)cyclopropanecarbonyl)pyrrolidine-2-carboxamide] and `CCOc1ccccc1-c1ccc(S(=O)(=O)[C@@H]2C[C@@H](C(=O)NC3(C#N)CC3)N(C(=O)C3(C(F)(F)F)CC3)C2)c(C)c1` [Example 40, (2S,4R)—N-(1-cyanocyclopropyl)-4-(2′-ethoxy-3-methylbiphenyl-4-ylsulfonyl)-1-(1-(trifluoromethyl)cyclopropanecarbonyl)pyrrolidine-2-carboxamide] are within 1.5-fold of each other in IC50: 1.14 nM for the first, 1.21 nM for the second.

Going from `Cc1ncn(-c2ccc(S(=O)(=O)[C@@H]3C[C@@H](C(=O)NC4(C#N)CC4)N(C(=O)C4(C(F)(F)F)CC4)C3)c(C(F)(F)F)c2)n1` [Example 24, (2S,4R)-4-[4-(3-Methyl-[1,2,4]triazol-1-yl)-2-trifluoromethyl-benzenesulfonyl]-1-(1-trifluoromethyl-cyclopropanecarbonyl)-pyrrolidine-2-carboxylic acid (1-cyano-cyclopropyl)-amide] to `Cc1nncn1-c1ccc(S(=O)(=O)[C@@H]2C[C@@H](C(=O)NC3(C#N)CC3)N(C(=O)C3(C(F)(F)F)CC3)C2)c(C(F)(F)F)c1` [Example 25, (2S,4R)-4-[4-(3-Methyl-[1,2,4]triazol-4-yl)-2-trifluoromethyl-benzenesulfonyl]-1-(1-trifluoromethyl-cyclopropanecarbonyl)-pyrrolidine-2-carboxylic acid (1-cyano-cyclopropyl)-amide], the IC50 rises from 0.772 nM to 3.27 nM (4.2-fold). The first is the more potent here.

`Cc1nc(C)n(-c2ccc(S(=O)(=O)[C@@H]3C[C@@H](C(=O)NC4(C#N)CC4)N(C(=O)C4(C(F)(F)F)CC4)C3)c(C(F)(F)F)c2)n1` [Example 27, (2S,4R)-4-[4-(3,5-Dimethyl-[1,2,4]triazol-1-yl)-2-trifluoromethyl-benzenesulfonyl]-1-(1-trifluoromethyl-cyclopropanecarbonyl)-pyrrolidine-2-carboxylic acid (1-cyano-cyclopropyl)-amide] and `Cc1ncnn1-c1ccc(S(=O)(=O)[C@@H]2C[C@@H](C(=O)NC3(C#N)CC3)N(C(=O)C3(C(F)(F)F)CC3)C2)c(C(F)(F)F)c1` [Example 31, (2S,4R)—N-(1-cyanocyclopropyl)-4-(4-(5-methyl-1H-1,2,4-triazol-1-yl)-2-(trifluoromethyl)phenylsulfonyl)-1-(1-(trifluoromethyl)cyclopropanecarbonyl) pyrrolidine-2-carboxamide] are within 1.5-fold of each other in IC50: 0.558 nM for the first, 0.54 nM for the second.

Going from `Cn1nc(C(F)(F)F)cc1-c1ccc(S(=O)(=O)[C@@H]2C[C@@H](C(=O)NC3(C#N)CC3)N(C(=O)C3(C(F)(F)F)CC3)C2)cc1` [Example 28, (2S,4R)—N-(1-cyanocyclopropyl)-4-(4-(1-methyl-3-(trifluoromethyl)-1H-pyrazol-5-yl)phenylsulfonyl)-1-(1-(trifluoromethyl)cyclopropanecarbonyl)pyrrolidine-2-carboxamide] to `Cc1cc(-c2cc(C(F)(F)F)nn2C)ccc1S(=O)(=O)[C@@H]1C[C@@H](C(=O)NC2(C#N)CC2)N(C(=O)C2(C(F)(F)F)CC2)C1` [Example 32, (2S,4R)—N-(1-cyanocyclopropyl)-4-(2-methyl-4-(1-methyl-3-(trifluoromethyl)-1H-pyrazol-5-yl)phenylsulfonyl)-1-(1-(trifluoromethyl)cyclopropanecarbonyl) pyrrolidine-2-carboxamide], the IC50 falls from 2.33 nM to 0.955 nM (2.4-fold).

Compared with `Cc1nc(C)n(-c2ccc(S(=O)(=O)[C@@H]3C[C@@H](C(=O)NC4(C#N)CC4)N(C(=O)C4(C(F)(F)F)CC4)C3)cc2)n1` [Example 33, (2S,4R)—N-(1-cyanocyclopropyl)-4-(4-(3,5-dimethyl-1H-1,2,4-triazol-1-yl)phenylsulfonyl)-1-(1-(trifluoromethyl)cyclopropanecarbonyl)pyrrolidine-2-carboxamide], `Cc1cc(C(F)(F)F)nn1-c1ccc(S(=O)(=O)[C@@H]2C[C@@H](C(=O)NC3(C#N)CC3)N(C(=O)C3(C(F)(F)F)CC3)C2)cc1` [Example 36, (2S,4R)—N-(1-cyanocyclopropyl)-4-(4-(5-methyl-3-(trifluoromethyl)-1H-pyrazol-1-yl)phenylsulfonyl)-1-(1-(trifluoromethyl)cyclopropanecarbonyl)pyrrolidine-2-carboxamide] is 1.7-fold higher in IC50: 1.57 nM for the first, 2.6 nM for the second. The first is the more potent here.

First: N#CC1(NC(=O)[C@@H]2C[C@@H](S(=O)(=O)c3ccc(-n4ccnn4)cc3)CN2C(=O)C2(C(F)(F)F)CC2)CC1 [Example 34, (2S,4R)-4-(4-(1H-1,2,3-triazol-1-yl)phenylsulfonyl)-N-(1-cyanocyclopropyl)-1-(1-(trifluoromethyl)cyclopropanecarbonyl)pyrrolidine-2-carboxamide]
Second: N#CC1(NC(=O)[C@@H]2C[C@@H](S(=O)(=O)c3ccc(-c4cnc(N)nc4)cc3)CN2C(=O)C2(C(F)(F)F)CC2)CC1 [Example 39, (2S,4R)-4-(4-(2-aminopyrimidin-5-yl)phenylsulfonyl)-N-(1-cyanocyclopropyl)-1-(1-(trifluoromethyl)cyclopropanecarbonyl)pyrrolidine-2-carboxamide]
The IC50 of the first is 2.2-fold higher: 1.06 nM for the first, 0.483 nM for the second.

First: N#CC1(NC(=O)[C@@H]2C[C@@H](S(=O)(=O)c3ccc(-c4ccccc4C=O)cc3)CN2C(=O)C2(C(F)(F)F)CC2)CC1 [Example 37, (2S,4R)—N-(1-cyanocyclopropyl)-4-(2′-formylbiphenyl-4-ylsulfonyl)-1-(1-(trifluoromethyl)cyclopropanecarbonyl)pyrrolidine-2-carboxamide]
Second: Cc1cc(-c2ccccc2C#N)ccc1S(=O)(=O)[C@@H]1C[C@@H](C(=O)NC2(C#N)CC2)N(C(=O)C2(C(F)(F)F)CC2)C1 [Example 41, (2S,4R)-4-(2′-cyano-3-methylbiphenyl-4-ylsulfonyl)-N-(1-cyanocyclopropyl)-1-(1-(trifluoromethyl)cyclopropanecarbonyl)pyrrolidine-2-carboxamide]
The IC50 of the first is 2.2-fold higher: 1.89 nM for the first, 0.86 nM for the second.
